≈ marks a conversion by molar mass, not a printed value.
Tests used:
Format in all cases: functional
Staphylococcus aureus = experiment: Antibacterial activity against Staphylococcus aureus ATCC 29213 by broth microdilution method
Escherichia coli = experiment: Antibacterial activity against Escherichia coli ATCC 25922 by broth microdilution method
Pseudomonas aeruginosa = experiment: Antibacterial activity against Pseudomonas aeruginosa B 63230 by broth microdilution method

CN(C)[C@@H]1C(O)=C(C(N)=O)C(=O)[C@@]2(O)C(O)=C3C(=O)c4c(O)cccc4[C@@](C)(O)[C@H]3C[C@@H]12 [TETRACYCLINE]
MIC (Staphylococcus aureus): 0.25 µg/mL (≈ 0.563 µM)
MIC (Escherichia coli): 0.5 µg/mL (≈ 1.13 µM)
MIC (Pseudomonas aeruginosa): 32 µg/mL (≈ 72 µM)
